From the supplement of paper PMC5844555

Assays:
Test in all cases: 3' UTR reporter interaction score (median-centred robust z-score of log2 firefly/Renilla activity); higher = less repression of the 3' UTR reporter
Conditions in all cases: HEK293T; 48 h
[1] = test system: BRCA2
Summary of the method: (§1)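 In at least two independent screens, HEK293T cells in 96-well plates (10,000/well) were co-transfected with DharmaFECT Duo using 100 ng firefly luc2P reporter with the gene's 3' UTR, 20 ng Renilla pRL-TK control and 2.5 pmol miRNA mimic, and dual-luciferase activities were read at 48 h. The interaction score, averaged across screens, is the per-plate robust z-score (median, median absolute deviation) of the log firefly/Renilla ratio, median-centred per miRNA, with more negative indicating interaction.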

[2] = test system: HRAS
Summary of the method: as §1

[3] = test system: MYT1L
Summary of the method: as §1

[4] = test system: FBXW7
Summary of the method: as §1

[5] = test system: MYC
Summary of the method: as §1

[6] = test system: ZEB2
Summary of the method: as §1

[7] = test system: MYCN
Summary of the method: as §1

[8] = test system: PHOX2B
Summary of the method: as §1

[9] = test system: NOTCH1
Summary of the method: as §1

[10] = test system: PHF6
Summary of the method: as §1

[11] = test system: RB1
Summary of the method: as §1

[12] = test system: MYB
Summary of the method: as §1

[13] = test system: TP53
Summary of the method: as §1

[14] = test system: EZH2
Summary of the method: as §1

Row | Sequence | 3' UTR reporter interaction score [1] | 3' UTR reporter interaction score [2] | 3' UTR reporter interaction score [3] | 3' UTR reporter interaction score [4] | 3' UTR reporter interaction score [5] | 3' UTR reporter interaction score [6] | 3' UTR reporter interaction score [7] | 3' UTR reporter interaction score [8] | 3' UTR reporter interaction score [9] | 3' UTR reporter interaction score [10] | 3' UTR reporter interaction score [11] | 3' UTR reporter interaction score [12] | 3' UTR reporter interaction score [13] | 3' UTR reporter interaction score [14]
1 | UAACAGUCUCCAGUCACGGCC | -0.504 | -0.229 | 1.02 | 0.973 | -0.0995 | 1.77 | 0.167 | -0.145 | -0.389 | -0.767 | -2.21 | -1.89 | -0.811 | 0.108
2 | UAAGGUGCAUCUAGUGCAGAUA | -0.222 | -0.481 | 0.136 | 0.264 | 0.199 | -0.0823 | -0.0167 | -0.0776 | 0.283 | -0.951 | -0.171 | 0.537 | 0.495 | 0.286
3 | UAAGGUGCAUCUAGUGCAGUUA | -0.228 | -0.399 | -0.221 | -0.313 | 0.863 | -0.449 | 0.0551 | 0.37 | 0.564 | -1.71 | -0.473 | 0.34 | 0.488 | 0.311
4 | UAAGUGCUUCCAUGUUUCAGUGG | 0.202 | 0.114 | -1.46 | 0.421 | -0.0462 | 0.969 | 0.305 | -0.0319 | 0.788 | 0.57 | 0.571 | -0.991 | -0.245 | -0.665
5 | UAAGUGCUUCCAUGUUUGAGUGU | -0.334 | 0.22 | -0.74 | 0.795 | -0.0168 | 1.47 | 0.678 | 0.566 | 0.935 | -0.0188 | 0.167 | -0.941 | -0.124 | -0.327
6 | UAAGUGCUUCCAUGUUUUAGUAG | -0.649 | 0.314 | -1.12 | 0.557 | -0.0722 | 1.24 | 0.56 | -0.86 | 1.36 | 0.487 | 0.351 | -0.833 | 0.0485 | -0.765
7 | UAAGUGCUUCCAUGUUUUGGUGA | -0.208 | -0.478 | -1.44 | 0.567 | -0.0521 | 1.55 | 0.317 | 0.453 | 1.18 | 0.733 | 1.03 | -1.01 | -0.0784 | -0.457
8 | UAAUACUGCCGGGUAAUGAUGG | -0.155 | -0.939 | 1.25 | -0.707 | 0.778 | -2.81 | -0.263 | -0.44 | -0.992 | 0.321 | 0.254 | -1.24 | 0.205 | 0.453
9 | UAAUACUGUCUGGUAAAACCGU | -0.165 | 0.264 | 0.747 | -1.04 | 0.8 | -6.85 | 0.575 | -0.137 | -1.39 | 0.422 | 0.612 | -2.29 | 0.0543 | 0.716
10 | UAAUCUCAGCUGGCAACUGUG | 1.06 | 0.474 | -0.796 | -0.0147 | 0.197 | 0.502 | 0.412 | 0.207 | -0.148 | 0.579 | -0.947 | -0.952 | -0.775 | -0.0854
11 | UAAUGCCCCUAAAAAUCCUUAU | 1.14 | -0.275 | 0.18 | 1.16 | 0.136 | -2.81 | -0.732 | 0.54 | -0.347 | 2.31 | -0.537 | -1.05 | -0.124 | 0.868
12 | UACAGUACUGUGAUAACUGAAG | 0.0293 | 0.843 | 0.686 | -3.92 | 0.128 | -0.268 | -3.49 | 0.00398 | -1.33 | -0.261 | 0.982 | 0.694 | -0.59 | -3.4
13 | UACAGUAGUCUGCACAUUGGUU | 0.551 | -0.926 | 3.26 | 0.408 | 0.385 | 1.83 | 0.292 | -0.571 | -0.605 | -0.669 | 2 | -0.118 | -1.16 | -0.827
14 | UACAGUAUAGAUGAUGUACUAG | -0.483 | -0.991 | 0.926 | -1.17 | -0.27 | 0.857 | -0.388 | 1.45 | 0.141 | 0.845 | 0.00103 | 1.2 | 0.564 | 0.0925
15 | UACCCAUUGCAUAUCGGAGUUG | 1.65 | 0.189 | -2.74 | 1.03 | 1.45 | -2.65 | -0.434 | -0.552 | 0.783 | -2.43 | 0.632 | -1.15 | 0.729 | -0.072
16 | UACCCUGUAGAACCGAAUUUGU | 0.189 | 0.849 | -2.07 | -0.174 | 0.546 | -1.8 | -0.116 | -0.86 | -1.66 | 0.333 | -0.148 | 0.245 | -0.546 | 1.07
17 | UACCCUGUAGAUCCGAAUUUGUG | 0.0748 | 1.04 | -2.08 | -0.445 | 0.449 | -1.18 | -0.296 | -1.36 | -2.62 | -0.356 | 0.397 | 0.0301 | -0.88 | 1.17
18 | UACUGCAUCAGGAACUGAUUGGAU | -0.471 | 0.0273 | 1.06 | 0.0205 | 0.358 | -0.414 | 0.685 | 0.00207 | 0.0506 | -2.18 | 1.24 | -0.822 | -0.963 | -1.49
19 | UAGAUAAAAUAUUGGUACCUG | 0.0137 | 0.836 | -0.105 | 0.354 | 0.271 | -0.296 | 0.037 | -1.45 | -0.186 | -0.242 | -0.00826 | -0.19 | 0.578 | 0.412
